Molecules are shown by their SMILES.

Experiment [1] concerns the target T1, Multidrug resistance-associated protein 1 (Homo sapiens, UniProt P33527). In words: Inhibition of ABCC1 in human NCI-H69AR cells assessed as increase in rhodamine123 fluorescence intensity using rhodamine123 as tracer preincubated for 30 mins followed by rhodamine 123 addition and measured for 180 mins by flow cytometry. The class given is cell-based.
Experiment [2] has as its target T2, ATP-dependent translocase ABCB1 (Homo sapiens, UniProt P08183). Kind of experiment: Inhibition of ABCB1 in human A2780 ADR cells assessed as increase in calcein-AM fluorescence intensity using calcein-AM as tracer preincubated for 30 mins followed by calcein-AM addition and measured within 30 mins at 30s intervals by fluorescence based analysis. The class given is cell-based.

Experiment [3] is described as follows: Inhibition of ABCA1 (unknown origin) expressed in mouse J774.A1 cells assessed as inhibition of 25-NBD-cholesterol fluorescence intensity preincubated for 24 hrs followed by 25-NBD-cholesterol addition and measured after 48 hrs by flow cytometry. In kind it is cell-based, Homo sapiens.
Experiment [4] has as its target T1, Multidrug resistance-associated protein 1. Kind of experiment: Inhibition of ABCC1 in human NCI-H69AR cells assessed as increase in daunorubicin fluorescence intensity using daunorubicin as tracer preincubated for 30 mins followed by daunorubicin addition and measured for 180 mins by flow cytometry. In kind it is cell-based.
Experiment [5] deals with T3, ATP-binding cassette sub-family C member 10 (Homo sapiens, UniProt Q5T3U5).
T3 sequence (Q5T3U5 whole entry): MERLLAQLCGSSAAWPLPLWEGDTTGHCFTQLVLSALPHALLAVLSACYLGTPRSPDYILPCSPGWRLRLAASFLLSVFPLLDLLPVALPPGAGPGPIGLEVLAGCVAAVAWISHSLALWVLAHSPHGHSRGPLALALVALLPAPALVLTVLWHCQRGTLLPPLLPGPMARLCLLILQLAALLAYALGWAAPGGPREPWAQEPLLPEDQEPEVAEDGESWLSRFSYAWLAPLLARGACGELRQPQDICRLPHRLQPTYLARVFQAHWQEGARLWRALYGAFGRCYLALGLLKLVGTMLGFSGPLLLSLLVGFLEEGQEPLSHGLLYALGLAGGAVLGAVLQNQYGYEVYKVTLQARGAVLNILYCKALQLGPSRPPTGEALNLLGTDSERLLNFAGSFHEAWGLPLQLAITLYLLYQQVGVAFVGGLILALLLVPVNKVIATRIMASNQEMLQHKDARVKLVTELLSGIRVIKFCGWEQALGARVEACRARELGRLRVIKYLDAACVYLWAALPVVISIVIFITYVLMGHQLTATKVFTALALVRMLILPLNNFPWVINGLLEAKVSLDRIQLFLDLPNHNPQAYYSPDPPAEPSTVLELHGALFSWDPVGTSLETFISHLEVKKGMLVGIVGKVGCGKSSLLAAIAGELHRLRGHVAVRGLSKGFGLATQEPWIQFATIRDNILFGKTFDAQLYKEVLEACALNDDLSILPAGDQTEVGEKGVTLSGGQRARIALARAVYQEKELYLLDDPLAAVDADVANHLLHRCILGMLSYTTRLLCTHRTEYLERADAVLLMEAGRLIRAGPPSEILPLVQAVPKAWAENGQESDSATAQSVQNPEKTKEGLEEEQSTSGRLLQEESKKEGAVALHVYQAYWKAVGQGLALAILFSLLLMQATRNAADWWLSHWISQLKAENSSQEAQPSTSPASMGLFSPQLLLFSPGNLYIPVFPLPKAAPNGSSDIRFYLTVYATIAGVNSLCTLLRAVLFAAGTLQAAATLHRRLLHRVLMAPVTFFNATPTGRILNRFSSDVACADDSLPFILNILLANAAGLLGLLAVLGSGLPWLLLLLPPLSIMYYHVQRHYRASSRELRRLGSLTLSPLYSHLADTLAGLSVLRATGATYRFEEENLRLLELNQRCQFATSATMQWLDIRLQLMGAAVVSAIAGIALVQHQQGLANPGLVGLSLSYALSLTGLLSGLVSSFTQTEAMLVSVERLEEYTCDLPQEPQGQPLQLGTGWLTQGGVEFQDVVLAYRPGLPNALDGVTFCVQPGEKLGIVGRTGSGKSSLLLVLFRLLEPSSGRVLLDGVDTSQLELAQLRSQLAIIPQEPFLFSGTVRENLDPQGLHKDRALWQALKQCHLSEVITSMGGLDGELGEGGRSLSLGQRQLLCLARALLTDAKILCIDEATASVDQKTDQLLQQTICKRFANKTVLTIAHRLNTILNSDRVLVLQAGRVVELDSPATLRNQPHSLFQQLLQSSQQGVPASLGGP
In words: Reversal of ABCC10 (unknown origin) -mediated multidrug resistance transfected in human HEK293 MRP7 cells assessed as increase in paclitaxel-mediated cytotoxicity incubated for 68 hrs in presence of paclitaxel by MTT assay. In kind it is cell-based. (In general: Tetrazolium dyes change colour on reduction, which living cells bring about.)

In experiment [6] the target is T4, Solute carrier organic anion transporter family member 1B3 (Homo sapiens, UniProt Q9NPD5).
T4 sequence (Q9NPD5 whole entry): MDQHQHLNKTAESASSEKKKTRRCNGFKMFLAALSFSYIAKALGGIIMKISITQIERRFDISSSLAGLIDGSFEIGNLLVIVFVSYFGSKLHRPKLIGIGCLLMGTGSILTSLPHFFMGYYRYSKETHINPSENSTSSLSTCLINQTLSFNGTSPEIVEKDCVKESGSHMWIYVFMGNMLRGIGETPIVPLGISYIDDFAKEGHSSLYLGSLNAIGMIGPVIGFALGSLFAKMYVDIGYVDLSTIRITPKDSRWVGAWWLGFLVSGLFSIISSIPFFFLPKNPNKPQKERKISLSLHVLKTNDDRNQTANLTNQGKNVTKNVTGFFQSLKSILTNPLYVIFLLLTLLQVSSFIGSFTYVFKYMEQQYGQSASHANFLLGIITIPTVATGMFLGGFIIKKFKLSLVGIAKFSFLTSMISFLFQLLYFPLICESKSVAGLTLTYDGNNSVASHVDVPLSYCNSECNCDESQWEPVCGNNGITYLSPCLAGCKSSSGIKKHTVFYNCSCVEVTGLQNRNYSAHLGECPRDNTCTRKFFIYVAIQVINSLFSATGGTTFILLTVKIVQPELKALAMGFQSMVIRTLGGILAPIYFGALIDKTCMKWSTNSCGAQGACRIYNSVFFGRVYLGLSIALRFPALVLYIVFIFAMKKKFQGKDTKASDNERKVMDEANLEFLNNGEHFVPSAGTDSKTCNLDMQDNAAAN
Kind of experiment: Inhibition of OATP1B3 (unknown origin) transfected in human A-431 cells assessed as inhibition of DHPDS uptake preincubated for 5 mins followed by DHPDS addition and measured after 10 mins by fluorescence based analysis. In kind it is cell-based.

Experiment [7] deals with T2, ATP-dependent translocase ABCB1. In words: Inhibition of ABCB1 in human A2780 ADR cells assessed as increase in daunorubicin fluorescence intensity using daunorubicin as tracer preincubated for 30 mins followed by daunorubicin addition and measured for 180 mins by flow cytometry. The class given is cell-based.

T1 sequence (P33527 whole entry): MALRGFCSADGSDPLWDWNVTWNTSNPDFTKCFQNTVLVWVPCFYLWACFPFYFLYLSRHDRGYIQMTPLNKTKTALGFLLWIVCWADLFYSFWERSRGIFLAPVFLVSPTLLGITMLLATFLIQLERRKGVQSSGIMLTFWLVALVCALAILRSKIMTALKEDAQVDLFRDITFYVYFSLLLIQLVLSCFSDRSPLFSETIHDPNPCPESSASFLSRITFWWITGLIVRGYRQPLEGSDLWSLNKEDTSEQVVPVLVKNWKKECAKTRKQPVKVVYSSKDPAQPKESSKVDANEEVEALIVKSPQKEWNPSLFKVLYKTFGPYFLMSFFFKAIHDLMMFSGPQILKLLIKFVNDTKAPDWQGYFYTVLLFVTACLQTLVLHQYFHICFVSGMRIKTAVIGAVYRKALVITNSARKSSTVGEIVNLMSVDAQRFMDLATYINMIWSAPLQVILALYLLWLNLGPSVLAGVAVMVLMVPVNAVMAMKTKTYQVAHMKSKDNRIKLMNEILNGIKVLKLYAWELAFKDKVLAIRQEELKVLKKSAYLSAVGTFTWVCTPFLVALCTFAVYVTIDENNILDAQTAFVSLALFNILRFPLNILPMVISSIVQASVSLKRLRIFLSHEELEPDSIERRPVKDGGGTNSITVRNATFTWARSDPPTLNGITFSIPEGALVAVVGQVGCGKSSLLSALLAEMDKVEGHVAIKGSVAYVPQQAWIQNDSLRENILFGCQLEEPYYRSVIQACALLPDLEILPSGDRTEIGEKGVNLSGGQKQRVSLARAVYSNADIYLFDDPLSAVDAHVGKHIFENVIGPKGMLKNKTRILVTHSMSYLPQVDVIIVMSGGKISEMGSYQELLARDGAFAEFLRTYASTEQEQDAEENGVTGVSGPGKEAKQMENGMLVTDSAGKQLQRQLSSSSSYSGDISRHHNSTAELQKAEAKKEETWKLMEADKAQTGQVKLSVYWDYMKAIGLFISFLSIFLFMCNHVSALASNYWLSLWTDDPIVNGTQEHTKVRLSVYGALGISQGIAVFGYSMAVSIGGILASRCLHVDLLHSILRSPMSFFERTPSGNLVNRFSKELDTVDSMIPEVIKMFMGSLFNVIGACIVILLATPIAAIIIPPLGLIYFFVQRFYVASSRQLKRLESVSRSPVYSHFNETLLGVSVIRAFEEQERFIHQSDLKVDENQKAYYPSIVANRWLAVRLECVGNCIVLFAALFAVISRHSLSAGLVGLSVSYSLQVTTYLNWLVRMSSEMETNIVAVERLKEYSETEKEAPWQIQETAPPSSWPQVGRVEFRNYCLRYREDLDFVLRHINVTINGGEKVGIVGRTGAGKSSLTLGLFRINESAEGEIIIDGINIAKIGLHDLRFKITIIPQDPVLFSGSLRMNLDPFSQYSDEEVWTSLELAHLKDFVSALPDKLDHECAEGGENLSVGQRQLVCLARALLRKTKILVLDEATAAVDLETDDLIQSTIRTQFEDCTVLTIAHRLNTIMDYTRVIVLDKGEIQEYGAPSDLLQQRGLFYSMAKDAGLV
T2 sequence (P08183 whole entry): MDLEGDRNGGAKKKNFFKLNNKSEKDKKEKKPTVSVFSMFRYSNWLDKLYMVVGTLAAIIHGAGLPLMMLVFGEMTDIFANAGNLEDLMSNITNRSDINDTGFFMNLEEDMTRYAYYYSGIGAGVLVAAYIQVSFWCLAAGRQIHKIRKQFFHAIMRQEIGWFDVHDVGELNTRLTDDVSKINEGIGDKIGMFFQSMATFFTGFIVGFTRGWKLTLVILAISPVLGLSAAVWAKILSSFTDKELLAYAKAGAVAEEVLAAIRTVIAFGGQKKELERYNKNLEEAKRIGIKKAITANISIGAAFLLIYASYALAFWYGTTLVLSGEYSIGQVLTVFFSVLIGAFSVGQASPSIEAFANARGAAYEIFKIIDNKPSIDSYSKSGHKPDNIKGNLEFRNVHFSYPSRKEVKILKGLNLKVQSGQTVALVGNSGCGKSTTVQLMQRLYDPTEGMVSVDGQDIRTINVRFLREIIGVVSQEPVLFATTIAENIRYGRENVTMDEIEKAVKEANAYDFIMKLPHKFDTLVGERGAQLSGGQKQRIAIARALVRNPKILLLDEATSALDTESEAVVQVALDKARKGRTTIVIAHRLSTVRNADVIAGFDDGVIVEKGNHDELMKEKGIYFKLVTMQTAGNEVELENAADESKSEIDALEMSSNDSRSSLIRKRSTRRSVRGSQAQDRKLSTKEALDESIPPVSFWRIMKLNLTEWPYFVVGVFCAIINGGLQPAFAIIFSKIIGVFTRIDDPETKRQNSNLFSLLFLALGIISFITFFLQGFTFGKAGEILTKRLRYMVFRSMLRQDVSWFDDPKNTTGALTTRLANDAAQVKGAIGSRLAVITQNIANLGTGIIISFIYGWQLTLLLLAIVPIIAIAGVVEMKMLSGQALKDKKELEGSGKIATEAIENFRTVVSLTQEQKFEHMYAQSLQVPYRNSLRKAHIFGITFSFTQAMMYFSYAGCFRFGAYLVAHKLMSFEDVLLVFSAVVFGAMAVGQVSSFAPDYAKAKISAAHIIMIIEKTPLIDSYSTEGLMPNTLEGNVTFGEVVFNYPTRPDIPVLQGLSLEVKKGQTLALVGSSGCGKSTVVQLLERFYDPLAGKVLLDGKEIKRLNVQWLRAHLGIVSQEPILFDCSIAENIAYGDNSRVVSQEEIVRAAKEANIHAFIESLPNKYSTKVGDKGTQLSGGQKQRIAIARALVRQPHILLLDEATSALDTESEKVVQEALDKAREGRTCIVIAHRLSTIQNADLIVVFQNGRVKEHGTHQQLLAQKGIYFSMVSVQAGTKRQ

One may read the IC50 as the concentration that gives 50% inhibition. As to `O=C(Cn1nc(C(=O)Nc2ccccn2)c2ccccc21)Nc1cc(Cl)ccc1Cl`, the IC50 result was “Not_active” in experiment [1] (nci-h69ar); 626 nM in experiment [2]; 13000 nM in experiment [3] (read-out: IC50); 492 nM in experiment [4]; 14100 nM in experiment [6]; 1740 nM in experiment [7]. Also, in experiment [5], the EC50 result is on record as “Not_active”.
Regarding `COc1cccc(NC(=O)Cn2nc(C(=O)Nc3cccc(OC)c3)c3ccccc32)c1`, the half-maximal inhibitory concentration (IC50) was 2660 nM in experiment [1] (read-out: IC50); 1100 nM in experiment [2]; “Not_active” in experiment [3]; 1480 nM in experiment [4]; 2290 nM in experiment [6]; 1430 nM in experiment [7]. The EC50 result in experiment [5] was “Not_active”.
`O=C(Cn1nc(C(=O)Nc2cccnc2)c2ccccc21)Nc1ccc(Cl)cc1`: the IC50 is 2900 nM in experiment [1] (read-out: IC50); 6120 nM in experiment [2]; 4700 nM in experiment [3] (read-out: IC50); 5150 nM in experiment [4]; 1840 nM in experiment [6]; 8000 nM in experiment [7].
Take `COc1cccc(NC(=O)c2nn(CC(=O)Nc3ccccc3OC)c3ccccc23)c1`: the IC50 in experiment [1] (read-out: IC50) was 3790 nM; in experiment [2] it was 1560 nM; in experiment [3] it was “Not_active”; in experiment [4], 2190 nM; in experiment [6], 1800 nM; in experiment [7], 2180 nM. The EC50 entry in experiment [5] is recorded as “Not_active”.

The record behind these values is ChEMBL document CHEMBL6109064, “Functional and structural polypharmacology of indazole-based privileged ligands to tackle the undruggability of membrane transporters” (Eur J Med Chem, 2025).
